From ChEMBL document CHEMBL1201862, “PubChem BioAssay data set” (2004)
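Values below derive from 48-hour exposures of cells grown in 96-well plates, with endpoints linearly interpolated between the two concentrations bracketing the appropriate inhibition level. The concentration for 50% growth inhibition is given as GI50.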 The source made the active and inactive calls. No stated cut-off is given here; in the data, active = GI50 up to about 1.1 µM and inactive = higher.

Key:
Experiment in all cases: DTP human tumour cell line panel, 48 h
[1] = test system: SNB-19
[2] = test system: MOLT-4
[3] = test system: ACHN
[4] = test system: SK-OV-3
[5] = test system: SF-539
[6] = test system: DMS-114
[7] = test system: SNB-75
[8] = test system: XF498
[9] = test system: HOP-92
[10] = test system: SK-MEL-5
[11] = test system: SNB-78
[12] = test system: SW-620
[13] = test system: NCI-H460
[14] = test system: Malme-3M
[15] = test system: U-251
[16] = test system: M14
[17] = test system: NCI-H226
[18] = test system: TK-10
[19] = test system: A549
[20] = test system: HT-29
[21] = test system: HOP-62
[22] = test system: HCC 2998
[23] = test system: RXF 393
[24] = test system: SK-MEL-2
[25] = test system: OVCAR-3
[26] = test system: DLD-1
[27] = test system: A498
[28] = test system: SF-268
[29] = test system: HCT-15
[30] = test system: CAKI-1
[31] = test system: CCRF-CEM
[32] = test system: SN12C
[33] = test system: UO-31
[34] = test system: KM-20L2
[35] = test system: NCI-H522
[36] = test system: OVCAR-5
[37] = test system: UACC-62
[38] = test system: OVCAR-8
[39] = test system: HOP-18
[40] = test system: HL-60
[41] = test system: OVCAR-4
[42] = test system: COLO 205
[43] = test system: K562
[44] = test system: KM12
[45] = test system: SK-MEL-28
[46] = test system: LOX IMVI
[47] = test system: NCI-H23
[48] = test system: RXF 631
[49] = test system: UACC-257
[50] = test system: RPMI-8226
[51] = test system: 786-0
[52] = test system: HCT-116
[53] = test system: IGROV-1
[54] = test system: DMS-273
[55] = test system: M19-MEL
[56] = test system: LXFL 529
[57] = test system: EKVX

Structure (SMILES): NC(=O)C(=O)CC(=O)c1ccccc1NC1=CC(=O)C(=O)c2ccccc21
- GI50 [1]: > 58.2 µM (inactive)
- GI50 [2]: > 55 µM (inactive)
- GI50 [3]: > 87.9 µM (inactive)
- GI50 [4]: > 100 µM (inactive)
- GI50 [5]: > 100 µM (inactive)
- GI50 [6]: 16.7 µM (inactive)
- GI50 [7]: > 88.3 µM (inactive)
- GI50 [8]: > 100 µM (inactive)
- GI50 [9]: 23.9 µM (inactive)
- GI50 [10]: 29.3 µM (inactive)
- GI50 [11]: 58.6 µM (inactive)
- GI50 [12]: 43.8 µM (inactive)
- GI50 [13]: 98.6 µM (inactive)
- GI50 [14]: 31.7 µM (inactive)
- GI50 [15]: > 70 µM (inactive)
- GI50 [16]: 46.6 µM (inactive)
- GI50 [17]: > 73.3 µM (inactive)
- GI50 [18]: > 100 µM (inactive)
- GI50 [19]: > 100 µM (inactive)
- GI50 [20]: > 100 µM (inactive)
- GI50 [21]: > 100 µM (inactive)
- GI50 [22]: > 100 µM (inactive)
- GI50 [23]: > 83.4 µM (inactive)
- GI50 [24]: 65.8 µM (inactive)
- GI50 [25]: 26.7 µM (inactive)
- GI50 [26]: 42.3 µM (inactive)
- GI50 [27]: > 100 µM (inactive)
- GI50 [28]: > 40.8 µM (inactive)
- GI50 [29]: > 53.5 µM
- GI50 [30]: > 100 µM (inactive)
- GI50 [31]: 33.9 µM (inactive)
- GI50 [32]: 51.6 µM (inactive)
- GI50 [33]: > 68.5 µM (inactive)
- GI50 [34]: > 100 µM (inactive)
- GI50 [35]: 30.2 µM (inactive)
- GI50 [36]: > 100 µM (inactive)
- GI50 [37]: 40.6 µM (inactive)
- GI50 [38]: 48.2 µM (inactive)
- GI50 [39]: > 100 µM (inactive)
- GI50 [40]: 22.6 µM (inactive)
- GI50 [41]: 19.2 µM (inactive)
- GI50 [42]: > 100 µM (inactive)
- GI50 [43]: 47 µM (inactive)
- GI50 [44]: 54.3 µM (inactive)
- GI50 [45]: > 51.1 µM (inactive)
- GI50 [46]: 14 µM (inactive)
- GI50 [47]: 31.2 µM (inactive)
- GI50 [48]: > 100 µM (inactive)
- GI50 [49]: 34.7 µM (inactive)
- GI50 [50]: > 40.6 µM (inactive)
- GI50 [51]: > 61.1 µM (inactive)
- GI50 [52]: 53.1 µM (inactive)
- GI50 [53]: > 92.3 µM (inactive)
- GI50 [54]: 53.1 µM (inactive)
- GI50 [55]: 7.74 µM (inactive)
- GI50 [56]: 50.6 µM (inactive)
- GI50 [57]: > 100 µM (inactive)
